# Measurements as given in PMC4921858, “Structural and functional characterization of the CAP domain of pathogen-related yeast 1 (Pry1) protein” (Scientific Reports, 2016).
# Experiments:
# [1] = target: T1, Pathogen-related yeast 1 (Pry1), CAP domain (Pry1CAP) (Saccharomyces cerevisiae, UniProt P47032); assay: [3H]-cholesterol saturation radioligand binding with purified protein
# T1 construct: C-terminal CAP domain, Ser151 through Ala296 (Pry1CAP)
# T1 sequence (P47032 151-296): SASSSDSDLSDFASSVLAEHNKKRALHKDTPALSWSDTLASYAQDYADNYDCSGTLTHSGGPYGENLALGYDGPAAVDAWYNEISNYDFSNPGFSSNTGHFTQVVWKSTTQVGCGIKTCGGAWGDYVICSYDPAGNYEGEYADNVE
# [2] = target: CAP domain of pathogen-related yeast protein-1 (Pry1) from Saccharomyces cerevisiae (Saccharomyces cerevisiae); assay: SEC; 20 μg Pry1CAP injected on a Yarra SEC-2000 column, 0.5 ml/min, PBS pH 7.4 as mobile phase, calibrated with Bio-Rad gel filtration standards, in triplicate
compound,measurement,setting,value
CC(C)CCC[C@@H](C)[C@H]1CC[C@H]2[C@@H]3CC=C4C[C@@H](O)CC[C@]4(C)[C@H]3CC[C@]12C [cholesterol],Kd,[1],2.08 ± 0.07 µM
CAP domain of pathogen-related yeast protein-1 (Pry1) from Saccharomyces cerevisiae (domain or fragment),stoichiometry N,[2],2
